Literature values in the CATMoS acute toxicity set (Mansouri et al. 2021).
“And” between values parts separate entries of the source, which are not always exact repeats. Equal values may be shown once.

Assay: rat acute oral toxicity
Conditions: in vivo

SMILES	LD50
OCC=CCO	1250 mg/kg
CC(NN)c1ccccc1 (stereo not drawn)	458 mg/kg
CCCOc1ccc(C(CN(C)C)C(C)CC)cc1Cl (stereo not drawn)	741 mg/kg
FC(F)(F)c1nc2c(Cl)c(Cl)c(Cl)cc2[nH]1	1.52 mg/kg
CN1CC[C@@]2(C)c3cc(OC(=O)NCCCCCCCCCCN4CCCCC4)ccc3N(C)[C@@H]12	15.3 mg/kg
NC1CCC(CC2CCC(N)CC2)CC1 (stereo not drawn)	1750 mg/kg
O=C1C(Cl)=C(NC(=O)C(Cl)Cl)C(=O)c2ccccc21	11700 mg/kg
COc1cc2c(cc1OC)-c1c(OC)c(OC)cc3c1[C@H](C2)N(C)CC3	545 mg/kg
FC(F)(F)c1nc2c(Br)c(Br)c(Br)c(Br)c2[nH]1	5.02 mg/kg
CS(=O)C(C)(C)C(=O)O (stereo not drawn)	7500 mg/kg
CCC(C)(C)OC(=O)Nc1ccco1	190 mg/kg
COP(=S)(Oc1ccc([N+](=O)[O-])cc1)Oc1ccc([N+](=O)[O-])cc1	312 mg/kg
CCOP(=S)(OCC)SCc1cccc([N+](=O)[O-])c1	250 mg/kg
Cc1cccc(C#N)c1	3000 mg/kg
CCN(CC)CCC(=O)N1c2ccccc2Sc2ccc(C(F)(F)F)cc21	860 mg/kg
CC(=O)OC(C(Cl)(Cl)Cl)P(=O)(Oc1ccccc1)Oc1ccccc1 (stereo not drawn)	3280 mg/kg
Nc1cc([N+](=O)[O-])ccc1O	2400 mg/kg
C=CC#CC(C)(C)O	600 mg/kg
CC(=O)O	3250 mg/kg
CC1CNCCN1 (stereo not drawn)	2030 mg/kg
CNC(=O)ON=CC(C)(C)OC	15 mg/kg
NS(=O)(=O)c1cc(Cl)c(Cl)c(S(N)(=O)=O)c1	10100 mg/kg
O=C(O)Cn1c(=O)sc2cccc(Cl)c21	3000 mg/kg

SMILES	LD50
O=C(O)C1CSCN1 (stereo not drawn)	875 mg/kg
CCCCCCCCCCF	5 mg/kg
CCCSC(=O)Oc1c(C(C)CC)cc([N+](=O)[O-])cc1[N+](=O)[O-] (stereo not drawn)	584 mg/kg
O=C(O)c1cccc2c(Cl)ccc(C(=O)O)c12	3500 mg/kg
Clc1ccc2ccccc2c1	2080 mg/kg
COC(=O)c1ccc(NC(C)=O)o1	1200 mg/kg
CC(c1ccc(OC#N)cc1)c1ccc(OC#N)cc1	1000 mg/kg
CCCCC(CC)COC(C[n+]1ccccc1)c1ccc(C2CCCC2)cc1 (stereo not drawn)	250 mg/kg
CN	1600 mg/kg
CC(=O)O[C@H]1C[C@@H]2CC[C@@H]3[C@H](CC[C@@]4(C)[C@H]3C[C@H]([N+]3(C)CCCCC3)[C@@H]4OC(C)=O)[C@@]2(C)C[C@@H]1N1CCCCC1	455 mg/kg
CCCOC(=O)Nc1ccco1	1600 mg/kg
CCCCCCCCCC(=O)NP(=O)(OC)SC (stereo not drawn)	125 mg/kg
CSC(C)=NOC(=O)N(C)SSN(C)C(=O)ON=C(C)SC	190 mg/kg
FC(F)(F)c1nc2c(Br)cc(Br)c(Br)c2[nH]1	12.8 mg/kg
CCOC(=O)CC(SP(=O)(OC)OC)C(=O)OCC (stereo not drawn)	158 mg/kg
C[C@]12CCC(=O)C=C1[C@@H]1C[C@@H]1[C@@H]1[C@@H]2CC[C@@]2(C)[C@H]1CC[C@@]2(O)CCC(=O)O	1400 mg/kg
N#Cc1cc([N+](=O)[O-])ccc1N	3880 mg/kg
CC(=O)OC(C)(C)C1CC=C(C)CC1 (stereo not drawn)	5080 mg/kg
Cc1ccc(C(=O)C(C)CN2CCCCC2)cc1 (stereo not drawn)	1450 mg/kg
Cc1cc(Sc2cc(C)c(O)c(C(C)(C)C)c2)cc(C(C)(C)C)c1O	6340 mg/kg
O=C(O)CCC(=O)c1ccc2oc3ccccc3c2c1	1280 mg/kg
CCSC(=O)N(CC)CC	400 mg/kg
CCCCc1c(C)nc2cccc(C)n2c1=O	1100 mg/kg

SMILES	LD50
c1ccc2cc(Nc3ccc(Nc4ccc5ccccc5c4)cc3)ccc2c1	4500 mg/kg
CCCCCCCCCC=O	3730 mg/kg
CCCCN(N=O)C(=O)OCC	900 mg/kg
O=C1OC(OC(=O)c2cccnc2Nc2cccc(C(F)(F)F)c2)c2ccccc21 (stereo not drawn)	12000 mg/kg
CC(=O)OC1(C)CC(C)C(=O)C(C(O)CC2CC(=O)NC(=O)C2)C1 (stereo not drawn)	0.158 mg/kg
C=C(C)C1CC=C(C)C(O)C1 (stereo not drawn)	3000 mg/kg
Cc1nc(N)nc(N2N=CCC2C)n1 (stereo not drawn)	3200 mg/kg
Nc1cc(Cl)ccc1Oc1ccc(Cl)cc1Cl	2290 mg/kg
CN1CC2=C(C1)CN(c1c(F)cc3c(=O)c(C(=O)O)cn(C4CC4)c3c1F)C2	1060 mg/kg
CCCCCCCC=O	5630 mg/kg
Cc1ccc(C)nc1	800 mg/kg
O=NN1CCSC1	1950 mg/kg
CC(N)(Cc1ccc(O)c(O)c1)C(=O)O (stereo not drawn)	5710 mg/kg
CCSC(=O)NCCCN(C)C	1300 mg/kg
Cc1cc(C)c(N)cc1C	1250 mg/kg and 1580 mg/kg
CC(=O)Oc1cc(C(C)C)c(OCCN(C)C)cc1C	740 mg/kg
Cc1nc(C)c(Cl)c(O)c1Cl	18000 mg/kg
CCOP(=S)(Oc1ccc(C#N)cc1)c1ccccc1 (stereo not drawn)	28.5 mg/kg
NC(N)=Nc1nc(CSCCC(N)=NS(N)(=O)=O)cs1	4050 mg/kg
COc1ccc(C=Nc2c(C)n(C)n(-c3ccccc3)c2=O)cc1	10000 mg/kg
CN1C(=O)CN=C(c2ccccc2F)c2cc(Cl)ccc21	1740 mg/kg
CCOC1Oc2ccc(OS(C)(=O)=O)cc2C1(C)C (stereo not drawn)	1130 mg/kg
COc1c(F)c(F)c2[nH]c(C(F)(F)F)nc2c1F	2.89 mg/kg

SMILES	LD50
CCCCN1CCCN=C1C(OCC)c1ccccc1 (stereo not drawn)	220 mg/kg
O=C1OCCC1N(C(=O)C1CC1)c1cccc(Cl)c1 (stereo not drawn)	174 mg/kg
CNC(N)=S	50 mg/kg
O=C(OC1CC2NC(C1)C1OC21)C(CO)c1ccccc1 (stereo not drawn)	3020 mg/kg
COP(=S)(OC)SCC(=O)N1CCOCC1	190 mg/kg
CC[C@H]1C[C@H]2[C@@H]3CCC4=CC(=O)CC[C@@H]4[C@H]3CC[C@]2(C)[C@H]1O	12100 mg/kg
CCCCc1c(OC(=O)c2ccccc2)n(-c2ccccc2)n(-c2ccccc2)c1=O	2200 mg/kg
CCCCCCCCCCCC(=O)OCCSC#N	500 mg/kg
O=C(CS(=O)Cc1ccco1)NC/C=C\COc1cc(CN2CCCCC2)ccn1 (stereo not drawn)	1250 mg/kg
Cc1ccccc1O	1860 mg/kg
C/N=N/Nc1ccc(Cl)cc1	329 mg/kg
CN(C(=O)c1cc(C(F)(F)F)cc(C(F)(F)F)c1)c1nc(C(F)(F)F)c(Cl)s1	501 mg/kg
O=C1NN=C(c2ccccc2)CO1	441 mg/kg
O=C(OCC1CO1)c1cccc(C(=O)OCC2CO2)c1 (stereo not drawn)	1000 mg/kg
O=C1CNC(=S)N1	420 mg/kg
COc1cnc(C)s1	1250 mg/kg
COc1ccc2c(c1)c(CC(=O)Oc1cccc(C(F)(F)F)c1)c(C)n2C(=O)c1ccc(Cl)cc1	307 mg/kg
CC(=O)OCCCc1ccccc1	4700 mg/kg
CCOC(=O)C(C#N)C(C)=O (stereo not drawn)	500 mg/kg
CN(C)CCC1Oc2ccccc2Nc2ccccc21 (stereo not drawn)	1400 mg/kg
CC(=O)OCC(C)O (stereo not drawn)	18000 mg/kg
CN(Sc1ccc([N+](=O)[O-])cc1)C(=O)Oc1cccc2c1OC(C)(C)C2	25 mg/kg
O=C=Nc1ccc(Cc2ccc(N=C=O)cc2)cc1	9200 mg/kg

SMILES	LD50
C[N+]1(CC2COC(c3ccccc3)(c3ccccc3)O2)CCCCC1 (stereo not drawn)	1820 mg/kg
CC(C)CCCC(C)NN (stereo not drawn)	108 mg/kg
C/C=C1/C[C@@H](C)[C@](O)(CO)C(=O)OCC2=CC[N+]3([O-])CC[C@@H](OC1=O)[C@@H]23 (stereo partly drawn)	48 mg/kg
CCOP(=S)(OCC)Sc1nc(C)cc(C)n1	59 mg/kg
N#CC(N=Nc1ccc(C(F)(F)F)cc1)=NNc1ccc(C(F)(F)F)cc1	613 mg/kg
CC1=C(C(C)C)CC=CC1	4270 mg/kg
N#CN=c1ccccn1Cc1c(Cl)cccc1Cl	500 mg/kg
CCCCN(CCCC)SN(C)C(=O)ON=CC(C)(C)SC	12.5 mg/kg
CCCCc1ccc(O)cc1O	500 mg/kg
CCOc1ccc([N+](=O)[O-])cc1CNCCBr	25 mg/kg
C=C(C)C(=O)OCC1CCC2OC2C1 (stereo not drawn)	2500 mg/kg
CC(C#N)N1CCOCC1 (stereo not drawn)	87 mg/kg
C=C(C)C1CCC(C)(OP(=S)(OC)OC)CC1 (stereo not drawn)	500 mg/kg
O=C(O)C(c1ccc(Cl)cc1)c1ccc(Cl)cc1	600 mg/kg and 740 mg/kg
Nc1c(Cl)cc(Cl)cc1Cl	2400 mg/kg
CCCCCOC(C[n+]1ccccc1)c1ccc(C2CCCC2)cc1 (stereo not drawn)	250 mg/kg
CC12CCC3c4ccc(O)cc4CCC3C1CC[C@@H]2OC(=O)COC(=O)CCCc1ccc(N(CCCl)CCCl)cc1 (stereo partly drawn)	682 mg/kg
C[C@H](CCC(=O)O)[C@H]1CC[C@H]2[C@@H]3C(=O)C[C@@H]4CC(=O)CC[C@]4(C)[C@H]3CC(=O)[C@]12C	3760 mg/kg and 4000 mg/kg
CC(C)(CCl)c1cc(Cl)nnc1Cl	1000 mg/kg
NC1CCCc2ccccc2C1 (stereo not drawn)	270 mg/kg
O=C(O)c1ccccc1Nc1cc(Cl)ccc1C(=O)O	1150 mg/kg
CCCCCCCCCCCO	3000 mg/kg
CC(C)Cc1cccc2c(CC(=O)O)cccc12	600 mg/kg

SMILES	LD50
C[Si](C)(C)OP(=O)(O[Si](C)(C)C)O[Si](C)(C)C	3440 mg/kg
CCCCCCCCc1ccc(C(C[n+]2ccccc2)OCCCC)cc1 (stereo not drawn)	250 mg/kg
CC(C)=CC(=O)O[C@H]1CC[C@]2(C=O)[C@H]3CC[C@]4(C)[C@@H](c5ccc(=O)oc5)CC[C@]4(O)[C@@H]3CC[C@]2(O)C1	1.74 mg/kg
CC1CC(C)(C)OB(OC(C)CC(C)(C)OB2OC(C)CC(C)(C)O2)O1 (stereo not drawn)	4720 mg/kg
CC(C)=CC(N)=O	3560 mg/kg
CC(C)(C)c1cc(CCC(=O)OCCSCCOC(=O)CCc2cc(C(C)(C)C)c(O)c(C(C)(C)C)c2)cc(C(C)(C)C)c1O	6300 mg/kg
CC(=O)NC(=O)c1ccccc1O	1800 mg/kg
CN(C)CCOc1ccccc1Cc1ccccc1	1470 mg/kg and 1400 mg/kg
CC(C(=O)Nc1cc(-c2ccccc2)nn1-c1ccccc1)N(C)C (stereo not drawn)	815 mg/kg
OCCOCCN1CCN(CCOC(c2ccccc2)c2ccc(Cl)cc2)CC1 (stereo not drawn)	800 mg/kg
OC1CC2CC1C1CC=CC21 (stereo not drawn)	3200 mg/kg
CC1=Nc2ccc(Cl)cc2S(=O)(=O)N1	980 mg/kg
CCCCC(CC)COC(C[n+]1ccccc1)c1cccc(C2CCCCC2)c1 (stereo not drawn)	250 mg/kg
CC(O)C(=O)O (stereo not drawn)	2100 mg/kg
O=S(=O)(O)CO	3200 mg/kg
C[N+]1(CCCl)CCCO1 (stereo not drawn)	3 mg/kg
COC(=O)[C@H]1[C@H]2C[C@@H]3c4[nH]c5cc(OC)ccc5c4CCN3C[C@H]2C[C@@H](OC(=O)C=Cc2cc(OC)c(OC)c(OC)c2)[C@@H]1OC	1000 mg/kg
CCOP(=S)(OC)Oc1ccc([N+](=O)[O-])cc1 (stereo not drawn)	2.85 mg/kg
COP(=O)(Oc1cc(Cl)c(Br)cc1Cl)c1ccccc1 (stereo not drawn)	118 mg/kg
CCn1cc(C(=O)O)c(=O)c2cnc(N3CCNCC3)nc21	16000 mg/kg
C[C@H]1CC[C@@H]2[C@@H](C)[C@H]3[C@H](C[C@H]4[C@@H]5CC=C6CC(O[C@@H]7O[C@H](CO)[C@H](O)[C@H](O[C@@H]8O[C@H](CO)[C@@H](O)[C@H](O)[C@H]8O)[C@H]7O[C@H]7O[C@@H](C)[C@H](O)[C@@H](O)[C@H]7O)CC[C@]6(C)[C@H]5CC[C@]34C)N2C1 (stereo partly drawn)	590 mg/kg
CC1=CCC2CC1(S)C2(C)C (stereo not drawn)	3000 mg/kg
Cc1ccccc1N=NN(C)C	350 mg/kg
